Experimental data: patent publication US9290476B2, “Methylene linked quinolinyl modulators of RORγt” (Janssen Pharmaceutica NV, priority 2012, dated 2016)
Values joined by “and” are separate entries in the source; they are usually repeats but may differ in a detail not shown here. Identical values can stand only once. Counter-ions that a name gives are not always drawn. Like-named read-outs stand apart in the source and are kept apart here.

Columns and labels:
[1] = target: human RORγt ligand binding domain (RORγt LBD) (Homo sapiens (Human), UniProt P51449); assay: RORγt ThermoFluor assay (thermal shift binding affinity); conditions: estimated from thermal shift
Chain of human RORγt ligand binding domain (RORγt LBD) (P51449 other isoform, or with tags, fused parts or gaps): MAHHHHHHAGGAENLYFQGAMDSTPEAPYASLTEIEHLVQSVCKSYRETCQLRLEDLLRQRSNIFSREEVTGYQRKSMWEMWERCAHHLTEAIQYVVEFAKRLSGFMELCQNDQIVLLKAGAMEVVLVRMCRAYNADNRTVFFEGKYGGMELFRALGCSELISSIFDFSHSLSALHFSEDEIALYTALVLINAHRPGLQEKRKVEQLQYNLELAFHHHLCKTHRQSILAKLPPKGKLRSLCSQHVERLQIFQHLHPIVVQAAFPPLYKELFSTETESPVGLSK
Outline: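 Thermal shift used 0.065 mg/mL RORγt LBD with 60 μM 1,8-ANS in 100 mM Hepes pH 7.0, 10 mM NaCl, 2.5 mM GSH and 0.002% Tween-20, heated at 1 °C/min. Fluorescence was excited at 380–400 nm and emission read at 500 nm.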

human RORγt LBD = human RORγt LBD (Homo sapiens (Human), UniProt P51449); assay: RORγt reporter assay (GAL4-RORγt LBD luciferase in HEK293T cells); assay type: cell-based; conditions: for IC50 / RORγt reporter Assay, % inhibition @ 6 μM: HEK293T cells; for IC50: 24 hours compound treatment; for inhibition at 6 µM: HEK-293T, read-out: RORγt reporter Assay, % inhibition @ 6 μM, HEK293T cells, 6 μM
Chain of human RORγt LBD (P51449 258-518): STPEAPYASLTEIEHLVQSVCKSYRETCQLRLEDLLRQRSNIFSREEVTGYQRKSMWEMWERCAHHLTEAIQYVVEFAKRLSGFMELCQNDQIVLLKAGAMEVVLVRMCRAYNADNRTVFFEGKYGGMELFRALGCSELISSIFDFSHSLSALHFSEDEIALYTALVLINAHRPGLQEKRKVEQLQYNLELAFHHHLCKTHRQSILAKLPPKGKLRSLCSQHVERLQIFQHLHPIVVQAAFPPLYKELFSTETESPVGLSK
Outline: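 HEK293T cells transiently co-transfected with GAL4-DBD–wild-type human RORγt LBD (pBIND) and GAL4-responsive firefly luciferase reporter (pGL4.31); renilla luciferase from pBIND normalises transfection/viability. Cells in phenol-red-free DMEM, 5% lipid-reduced FCS, treated with compound 24 h. Firefly/renilla ratio plotted against compound concentration.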

[2] = tested on: IL-17 production by CD4 T cells; assay: Human Th17 assay (IL-17 production by CD4 T cells under Th17 differentiation); assay type: cell-based; conditions: human CD4+ T cells, IL-17 after 3 days, read-out: Human Th17 Assay, IC50 μM
Excerpt: The human Th17 assay tests the effect of RORγt modulatory compounds on IL-17 production by CD4 T cells under conditions which favor Th17 differentiation.
Total CD4^+ T cells were isolated from the peripheral blood mononuclear cells (PBMC) of healthy donors using a CD4^+ T cell isolation kit II, following the manufacturer's instructions (Miltenyi Biotec). Cells were resuspended in a medium of RPMI-1640 supplemented with 10% fetal bovine serum, penicillin, streptomycin, glutamate, and β-mercaptoethanol and were added to 96-well plates at 1.5×10^5 per 100 μL per well. 50 μL of compound at titrated concentrations in DMSO were added into each well at final DMSO concentration at 0.2%. Cells were incubated for 1 hour, then 50 μL of Th17 cell differentiation medium was added to each well. The final concentrations of antibodies and cytokines (R&D Systems) in differentiation medium were: 3×10^6/mL anti-CD3/CD28 beads (prepared using human T cell activation/expansion kit, Miltenyi Biotec), 10 μg/mL anti-IL4, 10 μg/mL anti-IFNγ, 10 ng/mL IL1β, 10 ng/mL IL23, 50 ng/mL IL6, 3 ng/mL TGFβ and 20 U/mL IL2. Cells were cultured at 37° C. and 5% CO2 for 3 days. Supernatants were collected and the accumulated IL-17 in culture was measured by using MULTI-SPOT® Cytokine Plate following manufacture's instruction (Meso Scale Discovery). The plate was read using Sector Imager 6000, and IL-17 concentration was extrapolated from the standard curve. The IC50s were determined by GraphPad.

| Structure (SMILES) | Kd [1] | IC50 (human RORγt LBD) | inhibition at 6 µM (human RORγt LBD) | IC50 ([2]; Homo sapiens, CD4+ T, 72 h) | RORγt reporter Assay, % inhibition @ 6 μM (human RORγt LBD) | IC50 [2] |
| --- | --- | --- | --- | --- | --- | --- |
| COc1nc2ccc(C(O)(c3ccc(Cl)cc3)c3cncn3C)cc2c(Cl)c1Cc1ccc(S(C)(=O)=O)cc1 (stereo not shown) [Example 31, (4-Chloro-2-methoxy-3-(4-(methylsulfonyl)benzyl)quinolin-6-yl)(4-chlorophenyl)(1-methyl-1H-imidazol-5-yl)methanol.TFA] | 0.064 µM | 0.19 µM | 103% | 0.28 µM |  |  |
| OC(c1cccnc1)(c1cccc(Cl)c1)c1ccc2nc(Cl)c(Cc3cccs3)c(Cl)c2c1 (stereo not shown) [Example 32, (3-Chlorophenyl)(2,4-dichloro-3-(thiophen-2-ylmethyl)quinolin-6-yl)(pyridin-3-yl)methanol.TFA] | 0.033 µM | 0.11 µM | 103% | 1.8 µM |  |  |
| COc1nc2c(C)cc(C(O)(c3ccc(Cl)cc3)c3cncn3C)cc2c(Cl)c1Cc1ccc(-n2cccn2)cc1 (stereo not shown) [Example 28A, (3-(4-(1H-Pyrazol-1-yl)benzyl)-4-chloro-2-methoxy-8-methylquinolin-6-yl)(4-chlorophenyl)(1-methyl-1H-imidazol-5-yl)methanol.TFA] | 0.053 µM | 0.18 µM | 100% | 0.2 µM |  |  |
| CS(=O)(=O)c1ccc(Cc2c(Cl)nc3ccc(C(O)(c4cccnc4)c4cccc(Cl)c4)cc3c2Cl)cc1 (stereo not shown) [Example 8, (3-Chlorophenyl)(2,4-dichloro-3-(4-(methylsulfonyl)benzyl)quinolin-6-yl)(pyridin-3-yl)methanol.TFA] | 0.043 µM | 0.068 µM | 103% | 0.079 µM |  |  |
| COc1nc2ccc(C(O)(c3ccccc3)C3CCN(C(C)=O)CC3)cc2c(Cl)c1Cc1ccc(-n2cccn2)cc1 (single isomer, unassigned) [Example 83B, 1-(4-((3-(4-(1H-Pyrazol-1-yl)benzyl)-4-chloro-2-methoxyquinolin-6-yl)(hydroxy)(phenyl)methyl)piperidin-1-yl)ethanone] | 0.0047 µM | 0.024 µM and ~0.07 µM | 100% |  |  | 0.016 µM |
| Cc1cc(C(O)(c2ccc(Cl)cc2)c2cncn2C)cc2c(Cl)c(Cc3ccc(-n4cccn4)cc3)c(Cl)nc12 (stereo not shown) [Example 27, (3-(4-(1H-Pyrazol-1-yl)benzyl)-2,4-dichloro-8-methylquinolin-6-yl)(4-chlorophenyl)(1-methyl-1H-imidazol-5-yl)methanol.TFA salt] |  | 0.29 µM |  |  | 97% | 0.3 µM |
| COc1nc2ccc(C(O)(c3ccc(Cl)cc3)c3cncn3C)cc2c(Cl)c1Cc1ccc(-n2cncn2)cc1 (single isomer, unassigned) [Example 64C, (3-(4-(1H-1,2,4-triazol-1-yl)benzyl)-4-chloro-2-methoxyquinolin-6-yl)(4-chlorophenyl)(1-methyl-1H-imidazol-5-yl)methanol] |  |  |  | 0.086 µM | 94% |  |
| Cn1cncc1C(O)(c1ccc2nc(Cl)c(Cc3ccc(-n4cccn4)cc3)c(Cl)c2c1)c1cncs1 (stereo not shown) [Example 15, (3-(4-(1H-Pyrazol-1-yl)benzyl)-2,4-dichloroquinolin-6-yl)(1-methyl-1H-imidazol-5-yl)(thiazol-5-yl)methanol.TFA] |  | 0.013 µM | 104% | 0.024 µM |  |  |

More lines, now with the values ahead:

| Kd [1] | IC50 (human RORγt LBD) | inhibition at 6 µM (human RORγt LBD) | IC50 ([2]; Homo sapiens, CD4+ T, 72 h) | RORγt reporter Assay, % inhibition @ 6 μM (human RORγt LBD) | IC50 [2] | Structure (SMILES) |
| --- | --- | --- | --- | --- | --- | --- |
|  |  |  |  | 100% | 0.0021 µM | COc1nc2ccc(C(O)(c3ccc(C)nc3C)c3cnnn3C)cc2c(Cl)c1Cc1ccc(C(F)(F)F)cc1 (single isomer, unassigned) [Example 77C, (4-chloro-2-methoxy-3-(4-(trifluoromethyl)benzyl)quinolin-6-yl)(2,6-dimethylpyridin-3-yl)(1-methyl-1H-1,2,3-triazol-5-yl)methanol] |
|  |  |  |  | 93% | 0.002 µM | COc1nc2ccc(C(O)(c3cnnn3C)c3cnc(C)n3C)cc2c(Cl)c1Cc1ccc(C(F)(F)F)cc1 (single isomer, unassigned) [Example 80C, (4-chloro-2-methoxy-3-(4-(trifluoromethyl)benzyl)quinolin-6-yl)(1,2-dimethyl-1H-imidazol-5-yl)(1-methyl-1H-1,2,3-triazol-5-yl)methanol] |
|  |  | 97% |  |  | 0.022 µM | CCc1nc2ccc(C(O)(c3cnnn3C)C3CN(S(C)(=O)=O)C3)cc2c(Cl)c1Cc1ccc(C(F)(F)F)cc1 (single isomer, unassigned) [Example 91B, (4-Chloro-2-ethyl-3-(4-(trifluoromethyl)benzyl)quinolin-6-yl)(1-methyl-1H-1,2,3-triazol-5-yl)(1-(methylsulfonyl)azetidin-3-yl)methanol] |
|  |  | 99% | 0.025 µM |  |  | Cn1cncc1C(O)(c1ccc(C(F)(F)F)nc1)c1ccc2nc(C#N)c(Cc3ccc(-n4cccn4)cc3)c(C#N)c2c1 (stereo not shown) [Example 72B, 3-(4-(1H-Pyrazol-1-yl)benzyl)-6-(hydroxy(1-methyl-1H-imidazol-5-yl)(6-(trifluoromethyl)pyridin-3-yl)methyl)quinoline-2,4-dicarbonitrile] |
|  |  | 98% |  |  | 0.36 µM | COc1nc2ccc(C(O)(c3ccc(C)nc3C)c3cnnn3C)cc2c(Cl)c1Cc1ccc(C(F)(F)F)cc1 (single isomer, unassigned) [Example 77B, (4-chloro-2-methoxy-3-(4-(trifluoromethyl)benzyl)quinolin-6-yl)(2,6-dimethylpyridin-3-yl)(1-methyl-1H-1,2,3-triazol-5-yl)methanol] |
|  |  | 100% | 0.055 µM |  |  | Cn1cncc1C(O)(c1ccc(C(F)(F)F)nc1)c1ccc2nc(C#N)c(Cc3ccc(-n4cccn4)cc3)c(C#N)c2c1 (single isomer, unassigned) [Example 72C, 3-(4-(1H-Pyrazol-1-yl)benzyl)-6-(hydroxy(1-methyl-1H-imidazol-5-yl)(6-(trifluoromethyl)pyridin-3-yl)methyl)quinoline-2,4-dicarbonitrile] |
|  |  |  | 0.004 µM | 99% |  | COc1nc2ccc(C(O)(c3ccc(C)nc3C)c3cnnn3C)cc2c(C#N)c1Cc1ccc(C(F)(F)F)cc1 (single isomer, unassigned) [Example 78C, 6-((2,6-Dimethylpyridin-3-yl)(hydroxy)(1-methyl-1H-1,2,3-triazol-5-yl)methyl)-2-methoxy-3-(4-(trifluoromethyl)benzyl)quinoline-4-carbonitrile] |
|  |  |  |  | 102% | 0.0025 µM | CCc1nc2ccc(C(O)(c3cnnn3C)C3CN(S(C)(=O)=O)C3)cc2c(Cl)c1Cc1ccc(C(F)(F)F)cc1 (single isomer, unassigned) [Example 91C, (4-Chloro-2-ethyl-3-(4-(trifluoromethyl)benzyl)quinolin-6-yl)(1-methyl-1H-1,2,3-triazol-5-yl)(1-(methylsulfonyl)azetidin-3-yl)methanol] |
|  |  | 92% |  |  | 0.05 µM | COc1nc2ccc(C(O)(c3cnnn3C)c3cnc(C)n3C)cc2c(Cl)c1Cc1ccc(C(F)(F)F)cc1 (single isomer, unassigned) [Example 80B, (4-chloro-2-methoxy-3-(4-(trifluoromethyl)benzyl)quinolin-6-yl)(1,2-dimethyl-1H-imidazol-5-yl)(1-methyl-1H-1,2,3-triazol-5-yl)methanol] |
